Experimental data taken from patent US11524938B2, “Aromatic sulfonamide derivatives” (Bayer Pharma Aktiengesellschaft, priority 2016, dated 2022).
Values joined by “and” are separate entries in the source; they are usually repeats but may differ in a detail not shown here. Identical values can stand only once.

Target: T1, human P2X4 (Homo sapiens, UniProt Q99571)
T1 sequence (Q99571 1-388): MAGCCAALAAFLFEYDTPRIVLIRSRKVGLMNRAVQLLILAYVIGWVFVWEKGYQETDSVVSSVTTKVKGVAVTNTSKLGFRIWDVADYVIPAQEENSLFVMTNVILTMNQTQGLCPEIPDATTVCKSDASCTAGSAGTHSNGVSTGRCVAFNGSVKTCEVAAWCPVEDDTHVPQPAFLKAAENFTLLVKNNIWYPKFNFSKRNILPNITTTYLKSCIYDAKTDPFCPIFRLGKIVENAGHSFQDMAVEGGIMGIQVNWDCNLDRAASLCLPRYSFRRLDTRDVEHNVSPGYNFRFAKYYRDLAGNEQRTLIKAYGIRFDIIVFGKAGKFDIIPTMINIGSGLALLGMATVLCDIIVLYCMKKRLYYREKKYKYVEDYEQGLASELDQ
Test: Human P2X4 HEK Cell FLIPR Assay
Assay type: cell-based
Settings: agonist Bz-ATP at EC80; for Emax: HEK293, HEK293 cells, percentage of maximal inhibition, read-out: Human P2X4 HEK Cells (FLIPR Assay) avg Efficacy [%]; for IC50: HEK293 cells, individual values listed where some fall outside detection range
In short: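 Calcium flux read by FLIPR for 120 sec after Bz-ATP challenge at EC80 (established each assay day), following 30 min room-temperature compound preincubation in dye-loaded stable human P2X4 HEK293 cells. Peak RFU over basal normalized to agonist control; IC50, maximal inhibition and Hill coefficient from triplicate means.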

Emax | IC50 | Structure (SMILES)
92% | 597 nM | Cc1coc(-c2ccc(NC(=O)Cc3ccccc3Cl)cc2S(N)(=O)=O)n1 [Example 432, 2-(2-Chlorophenyl)-N-[4-(4-methyl-1,3-oxazol-2-yl)-3-sulfamoylphenyl]acetamide]
28% | > 25000 nM | NS(=O)(=O)c1cc(NC(=O)Cc2ccccc2Cl)ccc1-c1csc(C(F)(F)F)n1 [Example 433, 2-(2-Chlorophenyl)-N-{3-sulfamoyl-4-[2-(trifluoromethyl)-1,3-thiazol-4-yl]phenyl}acetamide]
50% | 17800 nM and > 25000 nM | NS(=O)(=O)c1cc(NC(=O)Cc2ccccc2Cl)ccc1-c1nc(C(F)(F)F)cs1 [Example 434, 2-(2-Chlorophenyl)-N-{3-sulfamoyl-4-[4-(trifluoromethyl)-1,3-thiazol-2-yl]phenyl}acetamide]
77% | 588 nM | CC(C)(O)c1ncc(-c2ccc(NC(=O)Cc3ccccc3Cl)cc2S(N)(=O)=O)s1 [Example 435, 2-(2-Chlorophenyl)-N-{4-[2-(2-hydroxypropan-2-yl)-1,3-thiazol-5-yl]-3-sulfamoylphenyl}acetamide]
56% | 12500 nM | CC(C)(O)c1nc(-c2ccc(NC(=O)Cc3ccccc3Cl)cc2S(N)(=O)=O)cs1 [Example 436, 2-(2-Chlorophenyl)-N-{4-[2-(2-hydroxypropan-2-yl)-1,3-thiazol-4-yl]-3-sulfamoylphenyl}acetamide]
53% | 39 nM | NS(=O)(=O)c1cc(NC(=O)Cc2ccccc2Cl)ccc1-c1cscn1 [Example 437, 2-(2-Chlorophenyl)-N-[3-sulfamoyl-4-(1,3-thiazol-4-yl)phenyl]acetamide]
75% | 18 nM | NS(=O)(=O)c1cc(NC(=O)Cc2ccccc2Cl)ccc1-c1cc(C2CC2)on1 [Example 438, 2-(2-Chlorophenyl)-N-[4-(5-cyclopropyl-1,2-oxazol-3-yl)-3-sulfamoylphenyl]acetamide]
94% | 4 nM | NS(=O)(=O)c1cc(NC(=O)Cc2ccccc2Cl)ccc1-c1cnc(C2CC2)o1 [Example 439, 2-(2-Chlorophenyl)-N-[4-(2-cyclopropyl-1,3-oxazol-5-yl)-3-sulfamoylphenyl]acetamide]
96% | 112 nM | NS(=O)(=O)c1cc(NC(=O)Cc2ccccc2Cl)ccc1-n1cc(C(=O)N2CC(F)(F)C2)cn1 [Example 440, 2-(2-Chlorophenyl)-N-(4-{4-[(3,3-difluoroazetidin-1-yl)carbonyl]-1H-pyrazol-1-yl}-3-sulfamoylphenyl)acetamide]
91% | 185 nM | NS(=O)(=O)c1cc(NC(=O)Cc2ccccc2Cl)ccc1-n1cc(C(=O)N2CCC2)cn1 [Example 441, N-{4-[4-(Azetidin-1-ylcarbonyl)-1H-pyrazol-1-yl]-3-sulfamoylphenyl}-2-(2-chlorophenyl)acetamide]
89% | 181 nM | NS(=O)(=O)c1cc(NC(=O)Cc2ccccc2Cl)ccc1-n1cc(C(=O)N2CCCC2)cn1 [Example 442, 2-(2-Chlorophenyl)-N-{4-[4-(pyrrolidin-1-ylcarbonyl)-1H-pyrazol-1-yl]-3-sulfamoylphenyl}acetamide]
84% | 122 nM | NS(=O)(=O)c1cc(NC(=O)Cc2ccccc2Cl)ccc1-n1cc(C(=O)N2CCC(F)(F)C2)cn1 [Example 443, 2-(2-Chlorophenyl)-N-(4-{4-[(3,3-difluoropyrrolidin-1-yl)carbonyl]-1H-pyrazol-1-yl}-3-sulfamoylphenyl)acetamide]
77% | 635 nM | NS(=O)(=O)c1cc(NC(=O)Cc2ccc(Cl)cc2)ccc1-c1cncc(C(F)(F)F)c1 [Example 444, 2-(4-Chlorophenyl)-N-{3-sulfamoyl-4-[5-(trifluoromethyl)pyridin-3-yl]phenyl}acetamide]
71% | 60 nM | NS(=O)(=O)c1cc(NC(=O)Cc2c(F)cccc2Cl)ccc1-c1cncc(C(F)(F)F)c1 [Example 445, 2-(2-Chloro-6-fluorophenyl)-N-{3-sulfamoyl-4-[5-(trifluoromethyl)pyridin-3-yl]phenyl}acetamide]
76% | 621 nM | NS(=O)(=O)c1cc(NC(=O)Cc2ccc(C(F)(F)F)cc2)ccc1-c1cncc(C(F)(F)F)c1 [Example 446, N-{3-Sulfamoyl-4-[5-(trifluoromethyl)pyridin-3-yl]phenyl}-2-[4-(trifluoromethyl)phenyl]acetamide]
68% | 1020 nM | NS(=O)(=O)c1cc(NC(=O)Cc2cccc(F)c2)ccc1-c1cncc(C(F)(F)F)c1 [Example 447, 2-(3-Fluorophenyl)-N-{3-sulfamoyl-4-[5-(trifluoromethyl)pyridin-3-yl]phenyl}acetamide]
63% | 472 nM | NS(=O)(=O)c1cc(NC(=O)Cc2ccc(Cl)cc2Cl)ccc1-c1cncc(C(F)(F)F)c1 [Example 448, 2-(2,4-Dichlorophenyl)-N-{3-sulfamoyl-4-[5-(trifluoromethyl)pyridin-3-yl]phenyl}acetamide]
73% | 135 nM | NS(=O)(=O)c1cc(NC(=O)Cc2ccccc2Br)ccc1-c1cncc(C(F)(F)F)c1 [Example 449, 2-(2-Bromophenyl)-N-{3-sulfamoyl-4-[5-(trifluoromethyl)pyridin-3-yl]phenyl}acetamide]
72% | 148 nM | NS(=O)(=O)c1cc(NC(=O)Cc2ccc(F)cc2F)ccc1-c1cncc(C(F)(F)F)c1 [Example 450, 2-(2,4-Difluorophenyl)-N-{3-sulfamoyl-4-[5-(trifluoromethyl)pyridin-3-yl]phenyl}acetamide]
86% | 244 nM | NS(=O)(=O)c1cc(NC(=O)Cc2ccc(F)c(F)c2)ccc1-c1cncc(C(F)(F)F)c1 [Example 451, 2-(3,4-Difluorophenyl)-N-{3-sulfamoyl-4-[5-(trifluoromethyl)pyridin-3-yl]phenyl}acetamide]
65% | 76 nM | NS(=O)(=O)c1cc(NC(=O)Cc2cc(F)cc(F)c2)ccc1-c1cncc(C(F)(F)F)c1 [Example 452, 2-(3,5-Difluorophenyl)-N-{3-sulfamoyl-4-[5-(trifluoromethyl)pyridin-3-yl]phenyl}acetamide]
77% | 74 nM | NS(=O)(=O)c1cc(NC(=O)Cc2cccc(Cl)c2)ccc1-c1cncc(C(F)(F)F)c1 [Example 453, 2-(3-Chlorophenyl)-N-{3-sulfamoyl-4-[5-(trifluoromethyl)pyridin-3-yl]phenyl}acetamide]
58% | 1440 nM | Cc1ccc(CC(=O)Nc2ccc(-c3cncc(C(F)(F)F)c3)c(S(N)(=O)=O)c2)cc1 [Example 454, 2-(4-Methylphenyl)-N-{3-sulfamoyl-4-[5-(trifluoromethyl)pyridin-3-yl]phenyl}acetamide]
74% | 5 nM | COc1ccc(CC(=O)Nc2ccc(-c3cncc(C(F)(F)F)c3)c(S(N)(=O)=O)c2)cc1 [Example 455, 2-(4-Methoxyphenyl)-N-{3-sulfamoyl-4-[5-(trifluoromethyl)pyridin-3-yl]phenyl}acetamide]
59% | 18 nM | Cc1ccc(CC(=O)Nc2ccc(-c3cncc(C(F)(F)F)c3)c(S(N)(=O)=O)c2)c(F)c1 [Example 456, 2-(2-Fluoro-4-methylphenyl)-N-{3-sulfamoyl-4-[5-(trifluoromethyl)pyridin-3-yl]phenyl}acetamide]
